Measured values from ChEMBL document CHEMBL3886513, “Benzothiazole-based pyridinium compounds” (2016).

Tests used:
[1] = biological target: Acetylcholinesterase (Homo sapiens, UniProt P22303); assay: (§1) AChE/BuChE Inhibition Assay: The cholinesterase assays were performed using colorimetric method reported by Ellman. The appearance of product was monitored at 412 nm for 5 min using a spectrophotometer. The reaction rates were compared and the percent inhibition due to the presence of test compounds was calculated. Inhibition curve was obtained for each compound. The linear regression parameters were determined and the IC50 values extrapolated.
[2] = biological target: Cholinesterase (Homo sapiens, UniProt P06276); assay: as §1
[3] = biological target: Acetylcholinesterase (Electrophorus electricus, UniProt O42275); assay: as §1
Acetylcholinesterase (Electrophorus electricus, UniProt O42275), sequence (O42275 whole entry): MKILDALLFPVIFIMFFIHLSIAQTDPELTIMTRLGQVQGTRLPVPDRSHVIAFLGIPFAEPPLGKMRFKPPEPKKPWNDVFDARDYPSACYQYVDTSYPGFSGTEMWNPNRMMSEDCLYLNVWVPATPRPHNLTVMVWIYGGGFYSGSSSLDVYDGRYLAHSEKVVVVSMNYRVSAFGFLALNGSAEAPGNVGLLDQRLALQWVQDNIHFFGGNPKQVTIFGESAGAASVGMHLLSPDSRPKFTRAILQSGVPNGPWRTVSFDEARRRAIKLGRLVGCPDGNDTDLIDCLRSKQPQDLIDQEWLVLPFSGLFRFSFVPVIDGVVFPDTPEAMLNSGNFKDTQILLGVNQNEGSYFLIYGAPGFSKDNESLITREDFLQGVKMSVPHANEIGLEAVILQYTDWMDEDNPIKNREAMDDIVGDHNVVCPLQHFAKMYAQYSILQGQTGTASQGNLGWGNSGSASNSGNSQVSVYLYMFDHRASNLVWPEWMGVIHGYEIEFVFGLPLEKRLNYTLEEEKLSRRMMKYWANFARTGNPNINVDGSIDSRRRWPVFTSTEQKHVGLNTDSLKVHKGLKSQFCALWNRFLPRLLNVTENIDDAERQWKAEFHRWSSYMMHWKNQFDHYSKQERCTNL

Cholinesterase, sequence (P06276 whole entry): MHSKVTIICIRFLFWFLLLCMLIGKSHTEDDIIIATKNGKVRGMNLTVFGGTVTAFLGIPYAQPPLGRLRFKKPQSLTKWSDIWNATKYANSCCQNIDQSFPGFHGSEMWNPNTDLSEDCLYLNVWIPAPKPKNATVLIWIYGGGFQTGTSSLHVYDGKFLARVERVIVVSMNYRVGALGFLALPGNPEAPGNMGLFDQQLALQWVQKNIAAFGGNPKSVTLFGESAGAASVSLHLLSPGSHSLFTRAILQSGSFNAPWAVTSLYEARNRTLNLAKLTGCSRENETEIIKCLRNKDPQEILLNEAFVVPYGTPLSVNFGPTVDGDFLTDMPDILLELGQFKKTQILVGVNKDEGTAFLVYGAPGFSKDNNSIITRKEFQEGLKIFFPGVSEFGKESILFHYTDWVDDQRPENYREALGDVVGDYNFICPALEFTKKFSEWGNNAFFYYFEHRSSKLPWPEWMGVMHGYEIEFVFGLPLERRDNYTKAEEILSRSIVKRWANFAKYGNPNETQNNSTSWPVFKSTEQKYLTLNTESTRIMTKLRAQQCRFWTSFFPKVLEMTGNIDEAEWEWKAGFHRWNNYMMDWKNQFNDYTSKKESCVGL
Acetylcholinesterase (Homo sapiens, UniProt P22303), sequence (P22303 whole entry): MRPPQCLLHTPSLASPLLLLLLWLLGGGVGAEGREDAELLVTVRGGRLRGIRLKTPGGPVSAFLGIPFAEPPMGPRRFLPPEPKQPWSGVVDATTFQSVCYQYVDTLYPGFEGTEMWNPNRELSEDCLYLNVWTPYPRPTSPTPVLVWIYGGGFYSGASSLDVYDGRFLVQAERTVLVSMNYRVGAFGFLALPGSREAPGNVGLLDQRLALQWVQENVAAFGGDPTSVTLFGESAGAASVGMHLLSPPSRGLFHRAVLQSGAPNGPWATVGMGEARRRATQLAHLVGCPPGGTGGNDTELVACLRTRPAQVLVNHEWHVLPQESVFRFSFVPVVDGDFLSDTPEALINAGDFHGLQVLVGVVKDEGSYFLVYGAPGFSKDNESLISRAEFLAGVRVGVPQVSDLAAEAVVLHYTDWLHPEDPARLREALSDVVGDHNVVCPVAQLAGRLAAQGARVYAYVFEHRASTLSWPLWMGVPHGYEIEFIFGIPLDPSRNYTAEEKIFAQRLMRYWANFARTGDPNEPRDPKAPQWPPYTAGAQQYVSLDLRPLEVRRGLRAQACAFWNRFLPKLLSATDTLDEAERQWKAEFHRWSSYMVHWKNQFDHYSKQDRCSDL

Structure (SMILES) | IC50 [1] | IC50 [2] | IC50 [3]
COc1ccc2nc(NCCc3cc[n+](Cc4ccccc4)cc3)sc2c1 | 186 nM | 3010 nM | 441 nM
O=[N+]([O-])c1ccc2nc(NCCc3cc[n+](Cc4ccc(F)cc4)cc3)sc2c1 | 96 nM | 11900 nM | 25 nM
COc1ccc2nc(NCCc3cc[n+](Cc4c(F)cccc4F)cc3)sc2c1 | 203 nM | 826 nM | 408 nM
COc1ccc2nc(NCCc3cc[n+](Cc4ccc(F)cc4)cc3)sc2c1 | 223 nM | 5630 nM | 542 nM
Fc1ccc(C[n+]2ccc(CCNc3nc4ccc(F)cc4s3)cc2)cc1 | 269 nM | 8160 nM | 500 nM
